Consider seven molecules from patent US9232792B2, “Method for promoting plant growth” (SUMITOMO CHEMICAL COMPANY, LIMITED, priority 2011, dated 2016).

Holding throughout (format): in vivo
Test [1] deals with Rice (cultivar: Nipponbare). Kind of test: Test Example 3: promotion of root growth in hydroponics of rice. The settings on record: 1 ppm in hydroponic solution; 3 days germination + 3 days cultivation. The procedure: (§1) Rice (cultivar: Nipponbare)
DMSO solutions containing each of the present compounds 4 to 8 at 10,000 ppm were prepared. A 1/10,000 volume of each DMSO solution containing each of the present compounds 4 to 8 at 10,000 ppm was added to a Hoagland solution for hydroponics at ¼ concentration (Hoagland and Arnon, California Agricultural Experiment Station 1950 Circular 347 pp. 34) to obtain a solution for hydroponics containing each of the present compounds 4 to 8 at 1 ppm. These solutions were used in the treated-group.
(§2) In a non-treated group, a solution for hydroponics obtained by adding a Hoagland solution for hydroponics at ¼ concentration to a 1/10,000 volume of DMSO was used.
(§3) The rice seeds were immersed in an aqueous solution of 1% sodium hypochlorite for 10 minutes, followed by 70% ethanol solution to sterilize their surfaces. After that, the seeds were washed with distilled water. The sterilized seeds were immersed in each solution for hydroponics containing the test compound at the given concentration, and incubated at a temperature of 28° C. for 3 days under dark conditions to stimulate the germination of the seeds.
(§4) Then, 30 ml of each solution for hydroponics containing the test compound at the given concentration was dispensed into a plastic tube (20 mm in diameter×113 mm in height) covered with a cardboard on the lateral surface for blocking a light. A float made of a styrene board and a vinyl mesh was placed on the water surface of each solution for hydroponics, and the rice seeds obtained after the stimulation of germination were placed on the float. The seeds were cultivated for 3 days under the conditions of an illuminance of 4,000 lux at the top of the tube, a temperature of 26° C., a humidity of 50%, and a day length of 16 hours.
The root length of the rice seedlings obtained after the cultivation was measured by using WinRHIZO system (manufactured by REGENT INSTRUMENTS). The average value of the root length in the treated group was calculated from the measurement values of 4 or 5 individuals. As a result, the root length in the treated group, wherein the plants were treated with the present compound 4, 5, 6, 7 or 8 (at a concentration of 1 ppm in each case), was much longer than that in the non-treated group.

Test [2] concerns Rice (cultivar: Nipponbare). Nature of the test: Test Example 1: promotion of root growth in hydroponics of rice. The settings on record: 1 ppm in hydroponic solution; 3 days germination + 3 days cultivation. The procedure: as §1
DMSO solutions containing each of the present compounds 1 to 3 at 10,000 ppm were prepared. A 1/10,000 volume of each DMSO solution containing each of the present compounds 1 to 3 at 10,000 ppm was added to a Hoagland solution for hydroponics at ¼ concentration (Hoagland and Arnon, California Agricultural Experiment Station 1950 Circular 347 pp. 34) to obtain a solution for hydroponics containing each of the present compounds 1 to 3 at 1 ppm. These solutions were used in the treated-group.
as §2, §3, §4
The root length of the rice seedlings obtained after the cultivation was measured by using WinRHIZO system (manufactured by REGENT INSTRUMENTS). The average value of the root length in the treated group was calculated from the measurement values of 4 or 5 individuals. […]

The subject of test [3] is Tobacco (Nicotiana benthamiana). Nature of the test: Test Example 4: reduction of low-temperature stress in hydroponics of tobacco. The following applies: 10 ppm in medium; 1.5±1.0° C. for 7 days, then 3 days at 22° C. The protocol: Tobacco (Nicotiana benthamiana)
DMSO solutions containing each of the present compounds 1 to 4 at a concentration of 10,000 ppm were prepared. A 1/1,000 volume of each DMSO solution was added to a Murashige-and-Skoog medium (a medium containing 2.3 g of a mixture of salts for Murashige-and-Skoog medium (manufactured by Wako. Pure Chemical Industries, Ltd.), 200 mg of myoinositol (manufactured by Sigma-Aldrich), 2 mg of nicotinic acid (manufactured by Wako Pure Chemical Industries, Ltd.), 2 mg of pyridoxine hydrochloride (manufactured by Wako Pure Chemical Industries, Ltd.), 20 mg of thiamine hydrochloride (manufactured by Wako Pure Chemical Industries, Ltd.), 20 g of sucrose (manufactured by Wako Pure Chemical Industries, Ltd.), 1 g of MES (manufactured by DOJINDO LABORATORIES) in 1 L of water, adjusted to pH 5.8) at ½ concentration to obtain a medium containing the test compound at a concentration of 10 ppm. These media were used in the treated-group.
In a non-treated group, a medium obtained by adding a 1/1,000 volume of DMSO to a Murashige-and-Skoog medium at ½ concentration was used.
The seeds of tobacco (Nicotiana benthamiana) were sown on 5 μL of the medium, and incubated at 22° C. overnight. Thereto was added 45 μL of a medium containing each present compound at a concentration of 10 ppm, and cultivated for 7 days under the conditions of an illuminance of 4,000 lux, a temperature of 22° C. and a day length of 16 hours, thereby treating the seedlings of tobacco (Nicotiana benthamiana) with the test compound.
In the non-treated group, 45 μL of a medium obtained by adding a 1/1,000 volume of DMSO to a Murashige-and-Skoog medium at ½ concentration was added, and treated in the same manner as above.
The seedlings of tobacco (Nicotiana benthamiana) treated with the present compounds were cultivated for 7 days under the conditions of an illuminance of 2,000 lux, a temperature of 1.5±1.0° C., and a day length of 16 hours, thereby subjecting to low-temperature stress treatment.
The plants of tobacco (Nicotiana benthamiana) subjected to low-temperature stress treatment was cultivated for 3 days under the conditions of an illuminance of 4,000 lux, a temperature of 22° C., and a day length of 16 hours, and then the green leaf area of the plants was visually evaluated. Completely dead plant was scored as 0, the plant without low-temperature stress treatment was scored as 5, the green area was rated on a 6-point scale in ⅕ increments, and the score of not less than 1 was regarded as effective in reducing the stress. As a result of visual evaluation, the green leaf area of plants in the treated group, wherein the plants were treated with the present compound 1, 2, 3 or 4 was much larger than that in the non-treated group.

Take `CC(C)N.O=C(O)c1cc2cc(C(F)(F)F)ccc2s1` [The present compound 7, isopropylammonium 5-(trifluoromethyl)benzo[b]thiophene-2-carboxylate]: the “root length of the rice seedlings vs non-treated group” value (“root length … vs non-treated group” for short) in test [1] was “much longer”.

Consider `O=C([O-])c1cc2cc(C(F)(F)F)ccc2s1.[Na+]` [The present compound 5, sodium 5-(trifluoromethyl)benzo[b]thiophene-2-carboxylate], for which, in test [1], the “root length … vs non-treated group” value was “much longer”.

As for `O=C(O)c1cc2c(C(F)(F)F)cccc2s1` [The present compound 3, 4-(trifluoromethyl)benzo[b]thiophene-2-carboxylic acid], the “root length … vs non-treated group” value in test [2] is recorded as “much longer”. In test [3], the “green leaf area of plants (visual evaluation) vs non-treated group” value (shortened to “green leaf area … vs non-treated group”) was “much larger”.

Take `O=C([O-])c1cc2cc(C(F)(F)F)ccc2s1.[K+]` [The present compound 6, potassium 5-(trifluoromethyl)benzo[b]thiophene-2-carboxylate]: the “root length … vs non-treated group” value in test [1] is reported as “much longer”.

In the case of `O=C(O)c1cc2ccc(C(F)(F)F)cc2s1` [The present compound 2, 6-(trifluoromethyl)benzo[b]thiophene-2-carboxylic acid], in test [2], the “root length … vs non-treated group” value is recorded as “much longer”. For the same molecule, in test [3], the “green leaf area … vs non-treated group” value is “much larger”.

In the case of `O=C(O)c1cc2cccc(C(F)(F)F)c2s1` [The present compound 4, 7-(trifluoromethyl)benzo[b]thiophene-2-carboxylic acid], the “green leaf area … vs non-treated group” value in test [3] is “much larger”. In addition, the “root length … vs non-treated group” value in test [1] is given as “much longer”.

Consider “laurylammonium 5-(trifluoromethyl)benzo[b]thiophene-2-carboxylate [The present compound 8]”, for which the “root length … vs non-treated group” value in test [1] is listed as “much longer”.
